Laboratory results reported in patent publication US9753023B2, “Nanofiber grid and related methods” (Carnegie Mellon University, priority 2015, dated 2017).
“Also recorded” adds a separate entry of the source.

Experiments:
Type in all cases: cell-based
C2C12 mouse myoblasts [1] = assay: Stress relaxation test (step strain) fitted to the standard linear solid (SLS) model
Protocol: (§1) Polymeric solutions of polystyrene (Scientific Polymer Products Inc., Ontario, N.Y., Mw: 2×10^6 g·mol^−1) dissolved in xylene (Fisher Scientific, Pittsburgh, Pa.) at 14% and 5% (w/w) were prepared. Plastic coverslips (Fisher Scientific, Pittsburgh, Pa.) were cut to hollow frames and used as substrates. Suspended and aligned polystyrene (PS) nanofibers of varying diameters, spacing and orientation were deposited onto a rotating plastic hollow frame in criss-crossed patterns using the STEP platform at room temperature and 15% relative humidity. […]
As cells experience forces, interactions between cytosol and cytoskeletal structures within their semi-permeable membrane elicit strain-rate dependent responses, but identifying physiological mechanisms for this behavior has proven difficult [Janmey, P. A., et al., J. Biol. Chem. 1994; 269:32503-13; Darling, E. M., et al., Biophys. […] Since viscoelasticity can alter the measured force at different strain rates, it is nonetheless an important parameter to qualitatively describe even without complete knowledge of the contribution of individual cellular components [Ketene, A. N., et al., Integr. […] Viscoelastic response is quantified through the classic stress relaxation test [Nagayama, K., et al., Med. Eng. […]

DBTRG-05MG glioma cells [2] = assay: Inside-out contractile single cell force and spreading area on nanonets
Protocol: (§2) According to one aspect of the methods described herein, using a highly aggressive glioma model (DBTRG-05MG), the platform technology using nanonets fused in crossed patterns manufactured using the non-electrospinning STEP technique serves to quantify single cell force modulation (both inside-out and outside-in) with and without the presence of a cytoskeleton altering drug (cytochalasin D) using suspended and aligned fiber networks (nanonets) beginning to represent the aligned glioma environment. This platform technology allows to measure contractile single cell forces exerted by glioma cells attached to and migrating along the fiber axis (inside-out). Further, the force response of glioma cells attached to two parallel fibers using a probe deflecting the leading fiber (outside-in) is measured. The forces are calculated using beam deflection within the elastic limit. […] The platform technology also allows for measuring changes in cell morphology, such as shape, area, etc. This technology allows the physiologically relevant aligned fiber networks used as ultra-sensitive force (˜nanoNewtons) probes for investigating drug response and efficacy in disease models at the single cell resolution.

DBTRG-05MG glioma cells [3] = assay: Outside-in force response to a probe deflecting the leading fiber on nanonets
Protocol: as §2

C2C12 mouse myoblasts [4] = assay: Nanonet probe system: single-cell force evolution under cyclic sub-failure stretch with drug; conditions: 30-minute period; for reduction in force: cycled at 1× (one stretch per two minutes), strain rate 2 μm/s
From the text: The use of a suspended nanonet platform for measuring C2C12 mouse myoblast forces attached to fibers of three diameters (250, 400, and 800 nm) representing a wide range of structural stiffness (3-50 nN/μm) in connection with the NFM is developed to allow investigations in cell adhesion forces in response to symmetric and asymmetric external perturbation in single and cyclic modes at high magnifications in real time. The combined findings are two-fold: (i) contractility-based inside-out forces are evenly distributed at the edges of the cell, and that overall force magnitudes are dependent on fiber structural stiffness, and (ii) external perturbation in symmetric and asymmetric modes biases cell-fiber failure location, without affecting the outside-in forces of cell-fiber adhesion (FIG. 5). Further measured are forces of (i) cell-cell junctions, (ii) cyclic perturbation of single cells in presence of drugs, and (iii) cancerous single-cells transitioning from a blebbing to pseudopodial morphology.
as §1, with “humidity. Using a custom solvent evaporation-based fusing method, the nodes of the criss-crossed patterned nanofibers were fused to form STEP nanonets with clamped boundary conditions.” for “humidity.”
To further evaluate the nanonet probe system for efficacy as a drug testing platform at high magnifications and temporal resolutions, we subjected cells to varying concentrations of the rho kinase (ROCK)-inhibitor Y27632 and monitored its force evolution over the same 30-minute period. […]

With `COC(=O)Nc1nc2ccc(C(=O)c3cccs3)cc2[nH]1` [nocodazole] the “relative contributions of SLS parameters k1, k2 and η (normalized)” value (C2C12 mouse myoblasts [1]; 10 μM nocodazole, microtubules depolymerized) was “shifting in the relative contributions from k2 to η; also recorded: shift in major contribution from k2 to η”.
`C=C1[C@@H](C)[C@H]2[C@H](Cc3ccccc3)NC(=O)[C@]23[C@H](OC(C)=O)/C=C/[C@@](C)(O)C(=O)[C@@H](C)C/C=C/[C@H]3[C@@H]1O` [cytochalasin D] was tested, and the “'inside-out' contractile forces” value (DBTRG-05MG glioma cells [2]) was “decreasing”, the “spreading area of single glioma cells” value (DBTRG-05MG glioma cells [2]) was “compromises the spreading area” and the “'outside-in' force response to external strain” value (DBTRG-05MG glioma cells [3]) was “decreasing”.
With `Cc1ccc2c(c1)C(=O)C1(O)CCN(c3ccccc3)C1=N2` (centres unmarked) [blebbistatin] the “relative contributions of SLS parameters k1, k2 and η (normalized)” value (C2C12 mouse myoblasts [1]; 50 μM blebbistatin, myosin-II disrupted) was “shifting in the relative contributions from k2 to η; also recorded: shift in major contribution from k2 to η”.
For `C[C@@H](N)[C@H]1CC[C@H](C(=O)Nc2ccncc2)CC1` [Y27632], the reduction in force (C2C12 mouse myoblasts [4]; 10 μM) was 38%, the reduction in force (C2C12 mouse myoblasts [4]; 100 μM) was 57% and the “reaching a steady-state force value” (C2C12 mouse myoblasts [4]; ROCK-inhibited cells versus cyclically-perturbed cells) was “did not”.
